Measured values: patent US6245757A, “Use of progestins to treat ischemic event” (priority 1998, dated 2001)

Experiments:
[1] = Body weight loss after MCAO, Example 1; conditions: for Body weight loss: mean ± S.E.M.
Description: (§1) Briefly, the right common carotid artery, external carotid artery (ECA) and internal carotid artery (ICA) were exposed. A length of 4-0 monofilament nylon suture (18.5-19.5 mm), determined by the animal weight, with its tip rounded by heating near a flame, was advanced from the ECA into the lumen of the ICA until it blocked the origin of the MCA. Two hours after MCAO, animals were reanaesthetized with halothane and reperfusion was performed by withdrawal of the suture until the tip cleared the lumen of the ICA.
(§2) Four randomly assigned populations of animals were tested. Group 1 (n=12): water soluble PROG (PROG with balance of 2-hydroxypropyl-β-cyclodextrin) (Sigma Chemical Co., St Louis, Mo.) dissolved in saline (4.0 mg/ml) was injected intraperitoneally (4.0 mg/kg) 30 minutes before MCAO. The remaining injections (all 4.0 mg/kg) were given at 6 and 24 hours after MCAO, respectively. Group 2 (n =12): the experimental protocol was identical to that in Group 1, except that PROG (4-pregnene-3,20-dione) (Sigma Chemical Co., St Louis, Mo.) dissolved in dimethyl sulfoxide (DMSO; Sigma Chemical Co., St Louis, Mo.) (8.0 mg/ml), instead of water soluble PROG, was administered. Group 3 (n=12): the experimental protocol was identical to that in group 2, except that the initial injection was delayed to the onset of reperfusion (2 hours after MCAO). Group 4 (n=12): the experimental protocol was the same as that in Group 2, except that the same volume of DMSO without PROG (0.5 ml/kg) as in Group 2 was administered.
(§3) All animals were weighed before surgery for MCAO and at 24 and 48 hours after MCAO. Neurological abnormalities were also evaluated 24 and 48 hours after MCAO using the scale (0-4) described by Z. Longa et al., Stroke, 20, 84 (1989). Rats were held gently by the tail, suspended one meter above the floor, and observed for forelimb flexion. […] Rats that consistently flexed the left forelimb (contralateral to the injured hemisphere) accompanying flexion of the wrist toward left without any other abnormality were graded 1. Rats that were allowed to move about freely and circled toward the paretic side consistently were graded 2. Rats that fell down to the left losing the ability to walk were graded 3.
(§4) For parametric variables, a one way ANOVA was applied to determine the statistical significance of differences among groups. If a significant difference was detected, then two sample t-tests with Bonferroni correction were performed to evaluate differences between control and PROG treated groups. Paired t-tests were performed on physiological parameters before and after administration of PROG and DMSO within each group. Values presented in this study are mean ±S.E.M. A probability value less than 0.05 was considered significant.

[2] = tested on: GABA receptor; conditions: neurons; cited from earlier work
[3] = tested on: middle cerebral artery occlusion (MCAO) rats; experiment: Infarct volume after MCAO (TTC staining), Example 1; assay type: in vivo, Male Wistar rats; conditions: for % Infarct volume (to the contralateral hemisphere): 48 h post MCAO, n=12, mean ± S.E.M., DMSO group 35.1 ± 4.5; for decrease of percent infarct volume compared with DMSO treated control group: 4.0 mg/kg i.p.
[4] = circulating PROG; cited from earlier work
[5] = tested on: middle cerebral artery occlusion rats; conditions: one hour prior to MCAO; early stages of ischemia; cited from earlier work
[6] = tested on: cerebral contusion; conditions: one hour after the cerebral trauma; cited from earlier work
[7] = tested on: central nervous system (CNS); conditions: cited from earlier work
[8] = tested on: GABA receptor; conditions: physiological levels of PROG, in vivo; cited from earlier work
[9] = Physiological variables (blood pH, pCO2, pO2, blood pressure) before and after injection, rat MCAO; assay type: in vivo, Male Wistar rats; conditions: for Mean Blood Pressure / pCO2 / pH / pO2: n=12, mean ± S.E.M.
[10] = tested on: middle cerebral artery occlusion (MCAO) rats; experiment: Neurological deficit score after MCAO (Zea Longa scale 0-4), Example 1; conditions: for Neurologic Score: scale 0-4, mean ± S.E.M., DMSO group 1.8 ± 0.1
Description: as §1, §2, §3, §4

[11] = tested on: global cerebral ischemia; conditions: 7-day pretreatment; cited from earlier work
[12] = in vivo; conditions: rat, ip, 4 mg/kg, plasma level of PROG
[13] = tested on: stroke patients; conditions: cited from earlier work
[14] = both groups of regular PROG treated animals (pre- and post-MCAO), 4.0 mg/kg i.p.
[15] = 20 min post-injection, 4.0 mg/kg i.p. 30 min before MCAO
[16] = 20 min post-injection, 4.0 mg/kg i.p. 2 h after MCAO
[17] = pre-injection, group 4.0 mg/kg i.p. 30 min before MCAO
[18] = pre-injection, group 4.0 mg/kg i.p. 2 h after MCAO

CC(=O)[C@H]1CC[C@H]2[C@@H]3CCC4=CC(=O)CC[C@]4(C)[C@H]3CC[C@]12C [PROG, 4-pregnene-3,20-dione]
Body weight loss ([1]; 24 h after MCAO, 4.0 mg/kg i.p. first dose 30 min before MCAO, DMSO group 40.4 ± 3.4): 31.1 ± 2.6 grams
Body weight loss ([1]; 24 h after MCAO, 4.0 mg/kg i.p. first dose 2 h after MCAO, DMSO group 40.4 ± 3.4): 33.8 ± 1.9 grams
Body weight loss ([1]; 48 h after MCAO, 4.0 mg/kg i.p. first dose 30 min before MCAO, DMSO group 19.7 ± 2.9): 8.8 ± 2.2 grams
Body weight loss ([1]; 48 h after MCAO, 4.0 mg/kg i.p. first dose 2 h after MCAO, DMSO group 19.7 ± 2.9): 10.0 ± 3.1 grams
body weight loss compared with DMSO group [1, 14]: reduced body weight loss
GABA-evoked Cl currents [2]: potentiating GABA-evoked Cl currents
% Infarct volume (to the contralateral hemisphere) ([3]; 4.0 mg/kg i.p. 30 min before, 6 and 24 h after MCAO): 21.5 ± 2.9%
% Infarct volume (to the contralateral hemisphere) ([3]; 4.0 mg/kg i.p. first dose 2 h after MCAO): 23.1 ± 2.3%
decrease of percent infarct volume compared with DMSO treated control group ([3]; delayed treated (2 h after MCAO), P=0.027): 34%
decrease of percent infarct volume compared with DMSO treated control group ([3]; first dose 30 min before MCAO, DMSO dissolved PROG P=0.018, water soluble PROG P=0.290 (not significant)): 39%
effectiveness 2 hours after onset of MCAO versus prior to onset ([3]; 2 h after onset vs prior to onset of MCAO): as effective
absorption by the intraperitoneal route (4.0 mg/kg i.p., DMSO dissolved, n=2): absorbed rapidly
plasma level of PROG (rat, in vivo, ip, 4 mg/kg, 4 h): 70.7 ng/mL
passage through the blood-brain barrier [4]: easily passes through the blood-brain barrier
brain edema [5]: reduce brain edema in the early stages of ischemia
edema resulting from cerebral contusion [6]: reduced edema
CNS actions ([7]; PROG and its related metabolites): CNS depressants and exert anesthetic, anticonvulsant and anxiolytic actions
anticonvulsant activity ([7]; in vivo): possesses anticonvulsant activity
GABA-mediated inhibition of neuronal activity [8]: enhance GABA-mediated inhibition of neuronal activity
Mean Blood Pressure [9, 15]: 95 ± 2 mm Hg
pCO2 [9, 15]: 39 ± 2 mm Hg
pH [9, 15]: 7.43 ± 0.02
pO2 [9, 15]: 135 ± 5 mm Hg
Mean Blood Pressure [9, 16]: 103 ± 3 mm Hg
pCO2 [9, 16]: 36 ± 1 mm Hg
pH [9, 16]: 7.44 ± 0.01
pO2 [9, 16]: 134 ± 3 mm Hg
physiological variables before and after injection ([9]; before vs 20 min after initial treatment, 4.0 mg/kg i.p.): no significant difference
Mean Blood Pressure [9, 17]: 94 ± 3 mm Hg
pCO2 [9, 17]: 41 ± 1 mm Hg
pH [9, 17]: 7.44 ± 0.01
pO2 [9, 17]: 134 ± 4 mm Hg
Mean Blood Pressure [9, 18]: 107 ± 3 mm Hg
pCO2 [9, 18]: 36 ± 1 mm Hg
pH [9, 18]: 7.46 ± 0
pO2 [9, 18]: 133 ± 4 mm Hg
Neurologic Score ([10]; 24 h after MCAO, 4.0 mg/kg i.p. first dose 30 min before MCAO): 1.4 ± 0.1 score
Neurologic Score ([10]; 24 h after MCAO, 4.0 mg/kg i.p. first dose 2 h after MCAO): 1.4 ± 0.1 score
Neurologic Score ([10]; 48 h after MCAO, 4.0 mg/kg i.p. first dose 30 min before MCAO): 1.4 ± 0.1 score
Neurologic Score ([10]; 48 h after MCAO, 4.0 mg/kg i.p. first dose 2 h after MCAO): 1.4 ± 0.1 score
neurological function compared with DMSO group [10, 14]: improved neurological function
neuroprotective activity following global cerebral ischemia [11]: exhibited neuroprotective activity following global cerebral ischemia only after a 7-day pretreatment regimen
concentration at 4 h [12]: 41.9 ng/mL

C[C@@H]1C[C@H]2[C@@H]3CCC4=CC(=O)C=C[C@]4(C)[C@@]3(F)[C@@H](O)C[C@]2(C)[C@@]1(O)C(=O)CO [dexamethasone]
outcome, steroid vs non-steroid treated patients [13]: no significant difference in outcome

C[C@H]1C[C@@H]2[C@H]([C@@H](O)C[C@@]3(C)[C@H]2CC[C@]3(O)C(=O)CO)[C@@]2(C)C=CC(=O)C=C12 [methylprednisolone]
outcome, steroid vs non-steroid treated patients [13]: no significant difference in outcome
